Source: patent US12661362B2, “Methods for the prevention and treatment of hearing loss” (Ting Therapeutics LLC, priority 2020, dated 2026)

Key:
[1] = test system: FVB/NJ mice; test: Cisplatin-induced hearing loss in FVB/NJ mice (ABR, DPOAE, wave-1, hair cell count); assay type: in vivo, mouse
Text: Now referring to FIGS. 4A-4F Niclosamide attenuates Cisplatin-induced hearing loss in FVB/NJ mice. Mice: Procedures used with mice were approved by the Institutional Animal Care and Use Committee (IACUC) at the Creighton University. For functional assessments including Cisplatin and noise exposure experiments 5 to 7-week-old FVB/NJ mice obtained from Jackson Laboratory (Bar Harbor, ME, USA) were used, with a mix of males and females across experiments. For the Cisplatin and noise studies, FVB/NJ mice were treated with 10 mg/kg Niclosamide, through intraperitoneal (IP) injection. Niclosamide, was dissolved in 1% DMSO in normal saline (0.9% NaCl solution) and vortexed multiple times before injections. Treatment started 24 hours before the Cisplatin or noise-exposure and continued once daily for 3 more days. Cisplatin was injected IP at 30 mg/kg divided into 2 doses per day. Animals were given 1 mL warm sterile normal saline subcutaneously twice a day before and for 7 days after Cisplatin treatment to prevent dehydration.
Now referring to FIG. 4A, ABR tests were performed 2-3 days before Cisplatin exposure, and 5 days post-Cisplatin exposure. The experimental groups included: Cisplatin and 1% DMSO, Cisplatin and Niclosamide, Niclosamide, only, and age-matched controls receiving normal saline. For the noise experiment, auditory tests were performed 2-3 days prior to noise exposure (paradigm described below), at post-exposure day-1 to monitor temporary threshold shift (TTS) and at post-exposure day-14 to monitor permanent threshold shift (PTS). Experimental groups included: noise-exposure and normal saline, noise-exposure and Niclosamide, Niclosamide-only, and age-matched controls. Following the final auditory function measurements, mice were euthanized, and cochleae were collected for morphological assessment. Based on the results of FVB/NJ ABR/DPOAE threshold variances and power analysis, ten FVB/NJ mice per group (5 of each sex) were used in this study.
Now referring to FIG. 4B measurement of the distortion products otoacoustic emission (DPOAE) thresholds at frequencies ranging from 8 to 40 kHz in cisplatin, niclosamide, control, and cisplatin-niclosamide treated-mice.
Now referring to FIG. 4C-4D, mean wave-1 amplitudes at 8, 16, 32, and 40 kHz was measured in the control and Niclosamide-treated mice before Cisplatin injection and at Day 5 post-Cisplatin injection. The ABR wave-1 amplitude represents the summed activity of the cochlear nerve. Amplitudes from the 85 dB SPL stimuli were compared between groups in the baseline ABR measurements using a two-factor ANOVA (group x frequency), and no group differences were detected (P>0.05).
Now referring to FIGS. […], representative samples of the mouse HCs at 32 kHz, the most protected frequency region shown by ABR measurement (FIG. 4E). […] Niclosamide protects NMDA-induced hair cell loss in zebrafish. Application of the N-methyl-d-aspartate (NMDA) to zebrafish neuromast HCs has also been used to mimic glutamate excitotoxicity associated with noise exposure (Katie S. Kindt and Lavinia Sheets, 2018). The results of the HC count following exposure of zebrafish to 300 μM NMDA led to hair-cell loss.

[2] = test system: SHP77; test: Survival of SHP77 cells with or without Cisplatin and Niclosamide; assay type: cell-based; conditions: 10 nM
Procedure: Now referring to FIG. 8, In vitro model of […] incubated with or without Cisplatin and 10 nM of Niclosamide. Cells were maintained in culture with the aid of Matrigel as previously described in Kelley and Driver, Curr. Protoc. Neurosci. Ch.(4); Unit(4); 34.1-10 (2010). After cells had been in culture for 1 d, growth medium DMEM (12430-054; GIB CO Life Technologies, with 1% FBS [16000-044; GIB CO Life Technologies] and 50 μg/ml ampicillin) with or without test compounds may be added for preincubation for 1 hr. at 37° C. in 5% Co2, and may be followed by incubation with 50 μM Cisplatin (479306; Sigma-Aldrich) with or without the test compound in growth medium for 24 hr. at 37° C. A Cisplatin concentration of 50 μM may be used for the explant assay due to its consistent showing of decreases outer hair cells by about −40% in the mouse cochlea after 24 hours. Cochlea may be fixed in 4% PFA and stained for actin with Alex Fluor 568 phalloidin to determine the viability of the HCs. Cochlea may also be stained by DAPI, FM1-43 dye uptake, and immunohistochemical staining for known HC markers (including parvalbumin and myosin 7a. Cochlea may be imaged by confocal microscopy. Two 160-μm regions from middle turns may be photographed, and the number of intact HCs can be counted.

[3] = test system: zebrafish neuromast HCs; test: Niclosamide/ezetimibe combination hair cell protection in Cisplatin-treated zebrafish (Loewe synergy); assay type: in vivo; conditions: concentrations above 2 nM, cisplatin 300 μM
Procedure: Now referring to FIGS. 6A-6B, 5 dpf zebrafish were either incubated with vehicle (DMSO), cisplatin alone at 300 μM concentration, cisplatin and ezetimibe (0.002 μM to 13.3 μM), cisplatin and niclosamide (0.02 nM to 18.3 nM), or cisplatin and combination ezetimibe/niclosamide. After 6 hours, animals were transferred to fresh water for 1 hour and then sacrificed and processed for immunohistochemistry and HC count as described above. To further elucidate whether Niclosamide, synergizes with Nrf2 activators to protect zebrafish HCs from Cisplatin damage, we tested the extent of HC damage in presence of Niclosamide and a Nrf2 activator, ezetimibe.
A three-dimensional contour plot (A) showing dose response of neuromast hair cell protection in zebrafish treated with varying concentrations of niclosamide and ezetimibe mapped to synergy distribution. […] Other dose combinations showing synergy are shown in dark blue boxes. Dose combinations with scores of 0 and 1 show additive effect. *P<5×10−2; **P<10−3, ***P<10−4 versus control fish, One-sample t-test run by the Combenefit software44. Data is shown as mean±standard deviation.
Zebrafish were treated with combinations of Niclosamide (ranging from 0.02-18.3 nM) and EZ (ranging from 0.0183-13.3 μM).

O=C(Nc1ccc([N+](=O)[O-])cc1Cl)c1cc(Cl)ccc1O [Niclosamide, 5-chloro-N-(2-chloro-4-nitrophenyl)-2-hydroxy-benzamide]
ABR threshold shifts versus Cisplatin-only mice ([1]; 8, 12 and 32 kHz, 10 mg/kg IP, Cisplatin 30 mg/kg): significantly reduced ABR threshold shifts
DPOAE threshold shifts versus Cisplatin-only mice ([1]; 16 and 32 kHz, 10 mg/kg IP, Day 5 post-Cisplatin): significantly reduced DPOAE threshold shifts
HC survival versus Cisplatin group ([1]; 30 kHz region): more HC survival
outer hair cell quantification, protection against Cisplatin-induced hair cell loss ([1]; 32 kHz region, cotreatment): full protection
ABR wave-1 amplitudes versus Cisplatin only group ([1]; all tested frequencies at 85 dB SPL, Day 5 post-Cisplatin): higher amplitudes
effect on Cisplatin-tumor killing activity [2]: did not affect Cisplatin-tumor killing activity
HC per neuromast counts, compound alone [3]: higher counts
